Where “and” joins values, the source holds several entries; their conditions need not be identical. Identical values can stand only once. Toxic doses and inconclusive results are not listed. Cut-off read from the data, not from the text of the source: active = T/C of 150% or more; inactive = T/C below 125%.
System: L1210 leukemia ip in BDF1 mice, survival T/C
Experiment: NCI In Vivo Anticancer Drug Screen. Data for tumor model L1210 Leukemia (intraperitoneal) in B6D2F1 (BDF1) mice
Details: higher = longer survival
How it was run: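 Value reflects the ratio of survival in compound-treated mice to survival in vehicle-treated controls, with both groups carrying the same transplanted tumor.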

Measured: T/C

C1CN1c1nc(N2CC2)nc(N2CC2)n1
active: endpoint: mean survival time, dose: 0.5 mg/kg/injection, schedule: Q01DX006 (iv), vehicle: saline 150 % of control | endpoint: mean survival time, dose: 0.5 mg/kg/injection, schedule: Q01DX010 (oral), vehicle: carboxymethylcellulose (CMC) 164 % of control | endpoint: mean survival time, dose: 0.5 mg/kg/injection, schedule: Q01DX Z (im), vehicle: saline 156 % of control | endpoint: mean survival time, dose: 0.5 mg/kg/injection, schedule: Q#A X Z (ip), vehicle: saline 151 % of control | endpoint: mean survival time, dose: 0.67 mg/kg/injection, schedule: Q01DX005 (ip), vehicle: saline 153 % of control and 158 % of control | endpoint: mean survival time, dose: 0.86 mg/kg/injection, schedule: Q01DX001 (ip), vehicle: saline 159 % of control | endpoint: mean survival time, dose: 1.0 mg/kg/injection, schedule: Q04DX003 (ip), vehicle: Klucel (hydroxypropylcellulose) (HPC) 152 % of control and 173 % of control | endpoint: mean survival time, dose: 1.0 mg/kg/injection, schedule: Q## X003 (ip), vehicle: saline 177 % of control | endpoint: mean survival time, dose: 1.3 mg/kg/injection, schedule: Q## X003 (ip), vehicle: saline 164 % of control | endpoint: mean survival time, dose: 1.3 mg/kg/injection, schedule: Q## X004 (ip), vehicle: saline 185 % of control | endpoint: mean survival time, dose: 1.5 mg/kg/injection, schedule: Q04DX003 (ip), vehicle: saline 169 % of control | endpoint: mean survival time, dose: 1.75 mg/kg/injection, schedule: Q07DX Z (ip), vehicle: saline 193 % of control | endpoint: mean survival time, dose: 2.0 mg/kg/injection, schedule: Q01DX001 (sc), vehicle: saline 159 % of control | endpoint: mean survival time, dose: 2.0 mg/kg/injection, schedule: Q## X002 (ip), vehicle: saline 197 % of control | endpoint: mean survival time, dose: 2.0 mg/kg/injection, schedule: Q## X003 (ip), vehicle: saline 172 % of control and 186 % of control | endpoint: mean survival time, dose: 2.0 mg/kg/injection, schedule: Q## X004 (ip), vehicle: saline 191 % of control | endpoint: mean survival time, dose: 2.0 mg/kg/injection, schedule: Q## X006 (ip), vehicle: saline 193 % of control | endpoint: mean survival time, dose: 2.0 mg/kg/injection, schedule: Q## X016 (ip), vehicle: saline 168 % of control | endpoint: mean survival time, dose: 2.0 mg/kg/injection, schedule: Q## X024 (ip), vehicle: saline 188 % of control | endpoint: mean survival time, dose: 2.1 mg/kg/injection, schedule: Q01DX001 (ip), vehicle: saline 187 % of control | endpoint: mean survival time, dose: 3.0 mg/kg/injection, schedule: Q## X003 (ip), vehicle: saline 150 % of control | endpoint: mean survival time, dose: 3.13 mg/kg/injection, schedule: Q01DX001 (ip), vehicle: saline 164 % of control | endpoint: mean survival time, dose: 3.2 mg/kg/injection, schedule: Q01DX001 (ip), vehicle: saline 213 % of control
inactive: endpoint: mean survival time, dose: 0.05 mg/kg/injection, schedule: Q01DX009 (ip), vehicle: saline 94 % of control | endpoint: mean survival time, dose: 0.06 mg/kg/injection, schedule: Q01DX009 (ip), vehicle: saline 95 % of control | endpoint: mean survival time, dose: 0.06 mg/kg/injection, schedule: Q01DX Z (ip), vehicle: saline 97 % of control | endpoint: mean survival time, dose: 0.1 mg/kg/injection, schedule: Q01DX009 (ip), vehicle: saline 105 % of control | endpoint: mean survival time, dose: 0.12 mg/kg/injection, schedule: Q01DX005 (ip), vehicle: saline 115 % of control | endpoint: mean survival time, dose: 0.12 mg/kg/injection, schedule: Q01DX009 (ip), vehicle: saline 107 % of control | endpoint: mean survival time, dose: 0.12 mg/kg/injection, schedule: Q01DX009 (sc), vehicle: saline 101 % of control | endpoint: mean survival time, dose: 0.12 mg/kg/injection, schedule: Q01DX010 (ip), vehicle: saline 110 % of control | endpoint: mean survival time, dose: 0.12 mg/kg/injection, schedule: Q01DX Z (ip), vehicle: carboxymethylcellulose (CMC) 113 % of control | endpoint: mean survival time, dose: 0.12 mg/kg/injection, schedule: Q01DX Z (ip), vehicle: saline 118 % of control | endpoint: mean survival time, dose: 0.13 mg/kg/injection, schedule: Q01DX009 (ip), vehicle: saline 110 % of control | endpoint: mean survival time, dose: 0.13 mg/kg/injection, schedule: Q01DX010 (oral), vehicle: carboxymethylcellulose (CMC) 119 % of control | endpoint: mean survival time, dose: 0.16 mg/kg/injection, schedule: Q01DX001 (ip), vehicle: saline 109 % of control and 120 % of control | endpoint: mean survival time, dose: 0.2 mg/kg/injection, schedule: Q01DX009 (ip), vehicle: saline 121 % of control | endpoint: mean survival time, dose: 0.25 mg/kg/injection, schedule: Q01DX001 (ip), vehicle: saline 103 % of control | endpoint: mean survival time, dose: 0.25 mg/kg/injection, schedule: Q01DX005 (ip), vehicle: saline 115 % of control | endpoint: mean survival time, dose: 0.25 mg/kg/injection, schedule: Q01DX006 (iv), vehicle: saline 119 % of control | endpoint: mean survival time, dose: 0.25 mg/kg/injection, schedule: Q01DX009 (sc), vehicle: saline 123 % of control | endpoint: mean survival time, dose: 0.25 mg/kg/injection, schedule: Q01DX Z (ip), vehicle: carboxymethylcellulose (CMC) 119 % of control | endpoint: mean survival time, dose: 0.25 mg/kg/injection, schedule: Q01DX Z (sc), vehicle: saline 124 % of control | endpoint: mean survival time, dose: 0.48 mg/kg/injection, schedule: Q## X008 (ip), vehicle: saline 110 % of control | endpoint: mean survival time, dose: 0.48 mg/kg/injection, schedule: Q## X016 (ip), vehicle: saline 103 % of control | endpoint: mean survival time, dose: 0.48 mg/kg/injection, schedule: Q## X024 (ip), vehicle: saline 107 % of control | endpoint: mean survival time, dose: 0.5 mg/kg/injection, schedule: Q01DX001 (ip), vehicle: saline 107 % of control | endpoint: mean survival time, dose: 0.5 mg/kg/injection, schedule: Q01DX001 (sc), vehicle: saline 112 % of control | endpoint: mean survival time, dose: 0.5 mg/kg/injection, schedule: Q01DX009 (oral), vehicle: saline 107 % of control | endpoint: mean survival time, dose: 0.5 mg/kg/injection, schedule: Q04DX003 (ip), vehicle: Klucel (hydroxypropylcellulose) (HPC) 117 % of control | endpoint: mean survival time, dose: 0.5 mg/kg/injection, schedule: Q## X002 (ip), vehicle: saline 109 % of control | endpoint: mean survival time, dose: 0.5 mg/kg/injection, schedule: Q## X003 (ip), vehicle: saline 110 % of control and 115 % of control | endpoint: mean survival time, dose: 0.5 mg/kg/injection, schedule: Q## X006 (ip), vehicle: saline 107 % of control | endpoint: mean survival time, dose: 0.5 mg/kg/injection, schedule: Q## X024 (ip), vehicle: saline 102 % of control | endpoint: mean survival time, dose: 0.7 mg/kg/injection, schedule: Q01DX001 (ip), vehicle: saline 103 % of control and 105 % of control | endpoint: mean survival time, dose: 0.8 mg/kg/injection, schedule: Q01DX009 (ip), vehicle: saline 115 % of control | endpoint: mean survival time, dose: 0.96 mg/kg/injection, schedule: Q## X008 (ip), vehicle: saline 106 % of control | endpoint: mean survival time, dose: 0.96 mg/kg/injection, schedule: Q## X016 (ip), vehicle: saline 111 % of control | endpoint: mean survival time, dose: 1.0 mg/kg/injection, schedule: Q01DX001 (sc), vehicle: saline 115 % of control | endpoint: mean survival time, dose: 1.0 mg/kg/injection, schedule: Q01DX006 (iv), vehicle: saline 114 % of control | endpoint: mean survival time, dose: 1.0 mg/kg/injection, schedule: Q01DX009 (oral), vehicle: saline 124 % of control | endpoint: mean survival time, dose: 1.0 mg/kg/injection, schedule: Q01DX010 (oral), vehicle: carboxymethylcellulose (CMC) 119 % of control | endpoint: mean survival time, dose: 1.0 mg/kg/injection, schedule: Q01DX Z (ip), vehicle: saline 96 % of control and 110 % of control | endpoint: mean survival time, dose: 1.0 mg/kg/injection, schedule: Q## X008 (ip), vehicle: saline 108 % of control | endpoint: mean survival time, dose: 1.0 mg/kg/injection, schedule: Q#A X Z (ip), vehicle: saline 93 % of control | endpoint: mean survival time, dose: 1.5 mg/kg/injection, schedule: Q01DX005 (ip), vehicle: saline 118 % of control | endpoint: mean survival time, dose: 2.0 mg/kg/injection, schedule: Q01DX001 (oral), vehicle: saline 106 % of control | endpoint: mean survival time, dose: 2.0 mg/kg/injection, schedule: Q01DX010 (oral), vehicle: carboxymethylcellulose (CMC) 97 % of control | endpoint: mean survival time, dose: 3.0 mg/kg/injection, schedule: Q01DX001 (ip), vehicle: saline 107 % of control | endpoint: mean survival time, dose: 3.0 mg/kg/injection, schedule: Q## X004 (ip), vehicle: saline 108 % of control | endpoint: mean survival time, dose: 4.0 mg/kg/injection, schedule: Q01DX001 (oral), vehicle: saline 122 % of control | endpoint: mean survival time, dose: 4.0 mg/kg/injection, schedule: Q01DX009 (oral), vehicle: saline 113 % of control | endpoint: mean survival time, dose: 4.0 mg/kg/injection, schedule: Q01DX Z (oral), vehicle: saline 93 % of control | endpoint: mean survival time, dose: 4.0 mg/kg/injection, schedule: Q## X002 (ip), vehicle: saline 118 % of control | endpoint: mean survival time, dose: 4.0 mg/kg/injection, schedule: Q## X006 (ip), vehicle: saline 95 % of control | endpoint: mean survival time, dose: 4.5 mg/kg/injection, schedule: Q01DX001 (ip), vehicle: saline 94 % of control | endpoint: mean survival time, dose: 4.5 mg/kg/injection, schedule: Q## X003 (ip), vehicle: saline 98 % of control | endpoint: mean survival time, dose: 4.5 mg/kg/injection, schedule: Q## X004 (ip), vehicle: saline 106 % of control | endpoint: mean survival time, dose: 8.0 mg/kg/injection, schedule: Q01DX001 (ip), vehicle: saline 110 % of control | endpoint: mean survival time, dose: 16.0 mg/kg/injection, schedule: Q01DX001 (ip), vehicle: saline 107 % of control | endpoint: mean survival time, dose: 49.0 micrograms/kg/injection, schedule: Q01DX Z (ip), vehicle: carboxymethylcellulose (CMC) 95 % of control | endpoint: mean survival time, dose: 98.0 micrograms/kg/injection, schedule: Q01DX Z (ip), vehicle: carboxymethylcellulose (CMC) 97 % of control | endpoint: mean survival time, dose: 195.0 micrograms/kg/injection, schedule: Q01DX Z (ip), vehicle: carboxymethylcellulose (CMC) 95 % of control | endpoint: mean survival time, dose: 390.0 micrograms/kg/injection, schedule: Q01DX Z (ip), vehicle: carboxymethylcellulose (CMC) 100 % of control | endpoint: median survival time, dose: 0.25 mg/kg/injection, schedule: Q01DX001 (ip), vehicle: saline 104 % of control | endpoint: median survival time, dose: 0.5 mg/kg/injection, schedule: Q01DX001 (ip), vehicle: saline 115 % of control

— PubChem BioAssay AID248 (DTP/NCI, 2004)
